ChEMBL document CHEMBL5441456, “ASAP - SARS-CoV-2 nsp3 macrodomain dose response” (2024)
“And” between values parts separate entries of the source, which are not always exact repeats. Identical values can stand only once.

Target: Replicase polyprotein 1ab (Severe acute respiratory syndrome coronavirus 2, UniProt P0DTD1)
Assay: Functional biochemical assay to identify treatments for viral infectious disease that targets SARS-COV-2 nsp3 macrodomain, whereby the mechanism of action displaces an ADP-Ribose modified peptide from the binding site. Utilizing a time-resolved fluorescence method to measure binding by reading the emitted fluorescence intensity in two wavelengths.

With `C[C@@H](C(=O)O)[C@H](NC(=O)c1ncnc2[nH]ccc12)c1ccc(Br)cc1` the IC50 was 2850 nM and 982 nM and 1030 nM.
With `CC(=O)Nc1ccc(-c2cc3c(N[C@@H](c4ccc5c(c4)S(=O)(=O)CCC5)C(C)C)ncnc3[nH]2)cc1F` the IC50 was 203 nM and 120 nM and 206 nM.
In the case of `CC(C)[C@H](Nc1ncnc2n[nH]cc12)c1ccc2c(c1)S(=O)(=O)CCC2`, the IC50 is reported as 1560 nM and 770 nM.
In the case of `CC(C)[C@@H](Nc1ncnc2[nH]c(-c3cnc(N)nc3)cc12)c1ccc2c(c1)S(=O)(=O)CCC2`, the IC50 is reported as 85 nM and 62 nM and 106 nM.
In the case of `CC(C)[C@@H](Nc1ncnc2[nH]c(-c3cncnc3)cc12)c1ccc2c(c1)S(=O)(=O)CCC2`, the IC50 is reported as 478 nM and 308 nM and 538 nM.
With `CC(C)[C@@H](Nc1ncnc2[nH]c(-c3cnc(N4CC(O)C4)nc3)cc12)c1ccc2c(c1)S(=O)(=O)CCC2` the IC50 was 94 nM and 68 nM and 116 nM.
In the case of `CC(C)[C@@H](Nc1ncnc2[nH]ccc12)c1ccc2c(n1)S(=O)(=O)CCC2`, the IC50 is reported as 1110 nM and 784 nM.
In the case of `CC(C)[C@@H](Nc1ncnc2[nH]c(C3=CCOC3)cc12)c1ccc2c(c1)S(=O)(=O)CCC2`, the IC50 is reported as 82 nM and 114 nM and 244 nM.
For `CC(C)[C@H](Nc1ncnc2[nH]c(-c3cnn(CC(=O)N(C)C)c3)cc12)c1ccc2c(c1)OCCO2`, the IC50 was 235 nM and 395 nM.
In the case of `CC(=O)N1CCN(Cc2cccc(-c3cc4c(N[C@@H](c5ccc6c(c5)S(=O)(=O)CCC6)C(C)C)ncnc4[nH]3)c2)CC1`, the IC50 is reported as 258 nM and 186 nM and 325 nM.
`CC(C)[C@@H](Nc1ncnc2[nH]c(-c3cnc4n3CCC4)cc12)c1ccc2c(c1)S(=O)(=O)CCC2` was tested, and the IC50 was 51 nM and 43 nM and 65 nM and 46 nM and 52 nM.
With `CC(C)[C@@H](Nc1ncnc2[nH]c(-c3ccc(S(C)(=O)=O)nc3)cc12)c1ccc2c(c1)S(=O)(=O)CCC2` the IC50 was 49 nM and 54 nM and 94 nM and 60 nM and 69 nM.
`CC(C)[C@@H](Nc1ncnc2[nH]c(-c3cc4c(cc3F)NC(=O)CC4)cc12)c1ccc2c(c1)S(=O)(=O)CCC2` was tested, and the IC50 was 297 nM and 189 nM and 345 nM.
For `Cc1n[nH]c(C)c1-c1cc2c(N[C@@H](c3ccc4c(c3)S(=O)(=O)CCC4)C(C)C)ncnc2[nH]1`, the IC50 was 456 nM and 272 nM and 503 nM.
For `CC(C)[C@@H](Nc1ncnc2[nH]c(-c3ccc(=O)n(C)c3)cc12)c1ccc2c(c1)S(=O)(=O)CCC2`, the IC50 was 50 nM and 46 nM and 40 nM and 48 nM and 78 nM.
With `CC(C)[C@H](Nc1ncnc(N)c1Cl)c1ccc2c(c1)S(=O)(=O)CCC2` the IC50 was 2940 nM and 1560 nM.
For `CC(C)[C@@H](Nc1ncnc2[nH]c(-c3ccn(C)c(=O)c3)cc12)c1ccc2c(c1)S(=O)(=O)CCC2`, the IC50 was 74 nM and 63 nM and 112 nM.
`CCNC(=O)c1cc2c(N[C@H](c3ccc4c(c3)NS(=O)(=O)CO4)C(C)C)ncnc2[nH]1` was tested, and the IC50 was 29 nM and 38 nM and 37 nM.
In the case of `CC(C)[C@H](Nc1ncnc2[nH]c(-c3cnn(CC(=O)N(C)C)c3)cc12)c1ccc2c(c1)S(=O)(=O)CCC2`, the IC50 is reported as 5560 nM and 4260 nM.
`CC(C)[C@@H](Nc1ncnc2[nH]c(-c3cnn(C)c3)cc12)c1ccc2c(c1)S(=O)(=O)CCO2` was tested, and the IC50 was 43 nM and 51 nM.
With `CC(C)[C@@H](Nc1ncnc2[nH]c(-c3cnc4c(c3)nnn4C)cc12)c1ccc2c(c1)S(=O)(=O)CCC2` the IC50 was 241 nM and 131 nM and 349 nM.
`CC(C)[C@@H](Nc1ncnc2[nH]c(-c3ccn4cnnc4c3)cc12)c1ccc2c(c1)S(=O)(=O)CCC2` was tested, and the IC50 was 93 nM and 73 nM and 126 nM.
For `CC(C)[C@@H](Nc1ncnc2[nH]c(-c3cn[nH]c3)cc12)c1ccc2c(c1)S(=O)(=O)CCC2`, the IC50 was 63 nM and 52 nM and 85 nM and 58 nM and 60 nM.
`Cc1nnn(C)c1-c1cc2c(N[C@@H](c3ccc4c(c3)S(=O)(=O)CCC4)C(C)C)ncnc2[nH]1` was tested, and the IC50 was 414 nM and 419 nM.

Point of comparison: `CCNC(=O)c1cc2c(NC3(c4ccc5c(c4)S(=O)(=O)CCC5)CC3)ncnc2[nH]1`, IC50 24600 nM. Against it:
- CCNC(=O)c1cc2c(N[C@H](c3ccc4c(c3)OCCO4)C(C)C)ncnc2[nH]1 — 1.9-fold higher, 46800 nM
- CC(C)[C@@H](Nc1cc(-n2ccnn2)ncn1)c1ccc2c(c1)S(=O)(=O)CCC2 — higher, > 99500 nM
- CC(C)[C@H](Nc1ncncc1-n1nccn1)c1ccc2c(c1)S(=O)(=O)CCC2 — higher, > 99500 nM
- CC(C)[C@H](Nc1ncnc2ccoc12)c1ccc2c(c1)S(=O)(=O)CCC2 — higher, > 99500 nM
- CC(C)[C@H](Nc1nc(N)ncc1Cl)c1ccc2c(c1)S(=O)(=O)CCC2 — higher, > 99500 nM
- CC(C)[C@@H](Nc1ncnc2[nH]c(-c3ccc4c(c3)C(C)(C)C(=O)N4)cc12)c1ccc2c(c1)S(=O)(=O)CCC2 — 74-fold lower, 334 nM
- CCNC(=O)c1cc2c(N[C@H](c3ccnc(N)c3)C(C)C)ncnc2[nH]1 — 14-fold lower, 1790 nM
- CC(C)[C@@H](Nc1cc(N2CCOCC2)ncn1)c1ccc2c(c1)S(=O)(=O)CCC2 — higher, > 99500 nM
- CCNC(=O)c1cc2c(N[C@H](c3ccc4c(n3)S(=O)(=O)CCO4)C(C)C)ncnc2[nH]1 — 220-fold lower, 110 nM
- CC(C)[C@@H](Nc1ncnc2c1OCCO2)c1ccc2c(c1)S(=O)(=O)CCC2 — higher, > 99500 nM
- CC(C)[C@H](Nc1ncncc1-n1ccnn1)c1ccc2c(c1)S(=O)(=O)CCC2 — higher, > 99500 nM
- CC(C)[C@@H](Oc1ncnc2[nH]ccc12)c1ccc2c(c1)S(=O)(=O)CCC2 — 4.1-fold lower, 6050 nM
- CC(C)[C@@H](Nc1cc(N)ncn1)c1ccc2c(c1)S(=O)(=O)CCC2 — 1.8-fold higher, 43800 nM
- CC(C)[C@@H](Nc1ncnc(N2CCCC2)n1)c1ccc2c(c1)S(=O)(=O)CCC2 — higher, > 99500 nM
- CC(C)[C@@H](Nc1ncnc2[nH]c(-c3ccc(S(N)(=O)=O)c4nsnc34)cc12)c1ccc2c(c1)S(=O)(=O)CCC2 — 100-fold lower, 242 nM
- CC(C)[C@@H](Nc1ncnc2[nH]c(-c3cccc4c3NC(=O)C4)cc12)c1ccc2c(c1)S(=O)(=O)CCC2 — 68-fold lower, 360 nM
- CC(C)[C@@H](NC(=O)Cc1ncnc2[nH]ccc12)c1ccc2c(c1)S(=O)(=O)CCC2 — higher, > 99500 nM
- CC(C)[C@H](Nc1ncnc2c1NCCO2)c1ccc2c(c1)S(=O)(=O)CCC2 — higher, > 99500 nM
- CCNC(=O)c1cc2c(N[C@H](c3ccc4nc(NC(C)=O)sc4c3)C(C)C)ncnc2[nH]1 — within 1.5-fold, 30100 nM
- CC(C)[C@@H](Nc1ncncc1N1CCOCC1)c1ccc2c(c1)S(=O)(=O)CCC2 — higher, > 99500 nM
- CCNC(=O)c1cc2c(N[C@H](c3ccccc3N(C)S(C)(=O)=O)C(C)C)ncnc2[nH]1 — higher, > 99500 nM
- CC(C)[C@H](Nc1ncnc(N2CCCC2)n1)c1ccc2c(c1)S(=O)(=O)CCC2 — higher, > 99500 nM
- CC(C)[C@H](Nc1ncnc(O)c1Cl)c1ccc2c(c1)S(=O)(=O)CCC2 — higher, > 99500 nM
- CC(C)[C@H](Nc1cc(-c2nc[nH]n2)ncn1)c1ccc2c(c1)S(=O)(=O)CCC2 — higher, > 99500 nM
- CC(C)[C@H](Oc1cc(N)ncn1)c1ccc2c(c1)S(=O)(=O)CCC2 — 2.4-fold higher, 59800 nM
- CCNC(=O)c1cc2c(N[C@H](c3cnc(C(=O)N(C)C)nc3)C(C)C)ncnc2[nH]1 — 1.9-fold higher, 47500 nM
- CC(C)[C@H](Nc1ncncc1-n1cncn1)c1ccc2c(c1)S(=O)(=O)CCC2 — higher, > 99500 nM
- CNCc1cc(-c2cc3c(N[C@H](c4ccc5c(c4)S(=O)(=O)CCO5)C(C)C)ncnc3[nH]2)co1 — 430-fold lower, 57 nM
- CC(C)[C@H](Nc1ncnc(-n2cccn2)n1)c1ccc2c(c1)S(=O)(=O)CCC2 — higher, > 99500 nM
- CC(C)[C@H](Nc1ncnc2c1CNCC2)c1ccc2c(c1)S(=O)(=O)CCC2 — higher, > 99500 nM
- CC(C)[C@H](Nc1ncnc2c1OCCO2)c1ccc2c(c1)S(=O)(=O)CCC2 — 1.6-fold higher, 38400 nM
- COc1ncnc(N[C@H](c2ccc3c(c2)S(=O)(=O)CCC3)C(C)C)c1F — higher, > 99500 nM
- CC(C)[C@H](Nc1cc(N2CCNCC2)ncn1)c1ccc2c(c1)S(=O)(=O)CCC2 — higher, > 99500 nM
- CC(C)[C@@H](Nc1ncnc2c1CCO2)c1ccc2c(c1)S(=O)(=O)CCC2 — 2.6-fold higher, 62900 nM
- CC(C)[C@H](Nc1cc(NCC(F)(F)F)ncn1)c1ccc2c(c1)S(=O)(=O)CCC2 — higher, > 99500 nM
- CC(=O)N1[C@@H]2CC[C@H]1c1c(ncnc1N[C@@H](c1ccc3c(c1)S(=O)(=O)CCC3)C(C)C)C2 — higher, > 99500 nM
- CC(C)[C@H](Nc1cc(O)ncn1)c1ccc2c(c1)S(=O)(=O)CCC2 — higher, > 99500 nM
- CC(C)[C@H](Nc1cc(-n2ccnn2)ncn1)c1ccc2c(c1)S(=O)(=O)CCC2 — higher, > 99500 nM
- CC(C)[C@@H](Nc1ncnc2[nH]c(-c3cc(O)nc4ccccc34)cc12)c1ccc2c(c1)S(=O)(=O)CCC2 — 15-fold lower, 1670 nM
- Cc1nc(N)c(Cl)c(N[C@H](c2ccc3c(c2)S(=O)(=O)CCC3)C(C)C)n1 — higher, > 99500 nM
- CC(C)[C@@H](Nc1ncncc1Cl)c1ccc2c(c1)S(=O)(=O)CCC2 — higher, > 99500 nM
- CC(C)[C@H](Nc1cc(-n2cncn2)ncn1)c1ccc2c(c1)S(=O)(=O)CCC2 — higher, > 99500 nM
- CC(C)[C@H](Nc1ncnc(N)c1F)c1ccc2c(c1)S(=O)(=O)CCC2 — higher, > 99500 nM
- CNc1ncnc(N[C@H](c2ccc3c(c2)S(=O)(=O)CCC3)C(C)C)c1Cl — higher, > 99500 nM
- CCNC(=O)c1cc2c(N[C@H](c3ccc4c(n3)S(=O)(=O)CCC4)C(C)C)ncnc2[nH]1 — 210-fold lower, 119 nM
- CC(C)[C@@H](Oc1cc(N)ncn1)c1ccc2c(c1)S(=O)(=O)CCC2 — 2.7-fold higher, 67400 nM
- CC(C)[C@H](NC(=O)c1ncnc2[nH]ccc12)c1ccc2c(c1)S(=O)(=O)CCC2 — higher, > 99500 nM
- CC(C)[C@H](Nc1ncnc2[nH]nnc12)c1ccc2c(c1)S(=O)(=O)CCC2 — higher, > 99500 nM
- CC(C)[C@@H](Nc1cc(-n2nccn2)ncn1)c1ccc2c(c1)S(=O)(=O)CCC2 — higher, > 99500 nM
- CC(C)[C@@H](Nc1cc(N2CCC[C@H]2C(=O)O)ncn1)c1ccc2c(c1)S(=O)(=O)CCC2 — higher, > 99500 nM
- CC(C)[C@H](Nc1cc(-n2nccn2)ncn1)c1ccc2c(c1)S(=O)(=O)CCC2 — higher, > 99500 nM
- CC(C)[C@H](Nc1ncnc2c1CCO2)c1ccc2c(c1)S(=O)(=O)CCC2 — higher, > 99500 nM
- CC(C)[C@@H](Nc1ncnc2c1CNCC2)c1ccc2c(c1)S(=O)(=O)CCC2 — higher, > 99500 nM
- CC(C)[C@@H](Nc1cc(NCC(F)(F)F)ncn1)c1ccc2c(c1)S(=O)(=O)CCC2 — 11-fold lower, 2240 nM
- CC(C)[C@@H](NC(=O)c1ncnc2[nH]ccc12)c1ccc2c(c1)S(=O)(=O)CCC2 — higher, > 99500 nM
- CC(C)[C@H](Nc1cccc2nc[nH]c(=O)c12)c1ccc2c(c1)S(=O)(=O)CCC2 — higher, > 99500 nM
- COc1ccc([C@H](CC(=O)O)NC(=O)c2ncnc3[nH]ccc23)cc1 — 17-fold lower, 1440 nM
- CC(C)[C@@H](Nc1cc(N2CCNCC2)ncn1)c1ccc2c(c1)S(=O)(=O)CCC2 — higher, > 99500 nM
- CC(C)[C@@H](Nc1ccncn1)c1ccc2c(c1)S(=O)(=O)CCC2 — higher, > 99500 nM
- CC(C)[C@H](Nc1cc(N2CCOCC2)ncn1)c1ccc2c(c1)S(=O)(=O)CCC2 — higher, > 99500 nM
- CC(C)[C@H](Nc1nccc2[nH]ccc12)c1ccc2c(c1)S(=O)(=O)CCC2 — higher, > 99500 nM
- CC(C)[C@H](Nc1ncnc2nccnc12)c1ccc2c(c1)S(=O)(=O)CCC2 — higher, > 99500 nM
- CC(C)[C@@H](Nc1ncnc2[nH]c(-c3ccnc(OCCN(C)C)c3)cc12)c1ccc2c(c1)S(=O)(=O)CCC2 — 220-fold lower, 114 nM
- CC(C)[C@H](Nc1ncncc1Cl)c1ccc2c(c1)S(=O)(=O)CCC2 — higher, > 99500 nM
